ChEMBL document CHEMBL4825757, “Optimization of 4,6-Disubstituted Pyrido[3,2-d]pyrimidines as Dual MNK/PIM Inhibitors to Inhibit Leukemia Cell Growth” (J Med Chem, 2021)
Calls of active or inactive are those of the source. The rule behind the calls is not given here.

How the values were obtained:
[1] = Tmax in Sprague Dawley rat at 10 mg/kg, ip measured after 24 hrs; type: ADME, organism-based; details: in vivo
[2] = molecular target: T1, MAP kinase-interacting serine/threonine-protein kinase 1 (Homo sapiens, UniProt Q9BUB5); assay: Inhibition of wild type human full length MKN1 (M1 to L424) expressed in mammalian expression system by HTRF method
Target sequence in this assay (Q9BUB5 whole entry): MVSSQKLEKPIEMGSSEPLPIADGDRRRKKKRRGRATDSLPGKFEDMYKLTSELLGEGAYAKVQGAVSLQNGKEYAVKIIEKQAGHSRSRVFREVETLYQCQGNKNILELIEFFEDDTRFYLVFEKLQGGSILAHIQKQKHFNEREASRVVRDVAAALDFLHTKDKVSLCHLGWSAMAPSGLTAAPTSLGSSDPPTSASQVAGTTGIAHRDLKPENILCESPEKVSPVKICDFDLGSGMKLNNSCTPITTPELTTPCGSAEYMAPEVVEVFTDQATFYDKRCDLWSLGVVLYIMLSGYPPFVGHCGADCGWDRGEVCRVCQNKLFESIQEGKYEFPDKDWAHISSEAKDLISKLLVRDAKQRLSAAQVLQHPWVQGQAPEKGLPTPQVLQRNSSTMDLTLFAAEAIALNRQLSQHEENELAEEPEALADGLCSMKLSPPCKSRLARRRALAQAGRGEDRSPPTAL

[3] = Toxicity in NOD/SCID mouse xenografted with human MOLM-13 cells assessed as abnormal changes in kidney at 5 to 10 mg/kg, ip daily for 2 weeks by hematoxylin-eosin staining based histological analysis; type: organism-based; details: in vivo, 336 h, dose 5-10 mg/kg
[4] = tested on: MOLM-13; assay: Downregulation of cyclin-D1 levels in human MOLM-13 cells at 1 to 2 uM incubated for 12 hrs by western blot analysis; type: functional, cell-based; details: dose 1-2 µM
[5] = molecular target: Serine/threonine-protein kinase pim-2 (Homo sapiens, UniProt Q9P1W9); assay: Inhibition of recombinant human Pim2 (2 to end residues) using RSRHSSYPAGT as substrate incubated for 40 mins in presence of [gamma33P]ATP by scintillation counting based radiometry assay
[6] = tested on: MOLM-13; assay: Induction of cell cycle arrest in human MOLM-13 cells assessed as G1 phase at 2 uM incubated for 12 hr by propidium iodide based flow cytometry analysis (Rvb= 51.29%); type: functional
[7] = Cmax in Sprague Dawley rat at 2 mg/kg, iv measured after 24 hrs; type: ADME, organism-based; design: route intravenous, time 24 hrs, dose 2 mg/kg; details: in vivo
[8] = Bioavailability in Sprague Dawley rat at 10 mg/kg, ip measured after 24 hrs; type: ADME, organism-based; details: in vivo
[9] = tested on: MOLM-13; assay: Antitumor activity against human MOLM-13 cells xenografted in NOD/SCID mouse assessed as decrease in 4EBP1 phosphorylation at 5 to 10 mg/kg, ip daily for 2 weeks by western blot analysis; type: functional, organism-based; details: dose 5-10 mg/kg
[10] = tested on: K562; assay: Antiproliferative activity against human K562 cells assessed as reduction of cell viability incubated for 72 hrs by trypan blue staining based cell counting analysis; type: functional
[11] = tested on: K562; assay: Downregulation of mcl-1 levels in human K562 cells at 1 to 2 uM incubated for 24 hrs by western blot analysis; type: functional, cell-based; details: dose 1-2 µM
[12] = tested on: MOLM-13; assay: Induction of apoptosis in human MOLM-13 cells assessed as early apoptotic cells at 1 uM incubated for 12 hrs by annexin-V and propidium iodide staining based flow cytometry analysis (reference value: 5.40%); type: functional
[13] = molecular target: Serine/threonine-protein kinase pim-3 (Homo sapiens, UniProt Q86V86); assay: Inhibition of wild-type human partial length PIM3 (G16 to A317 residues) expressed in bacterial expression system at 1 uM by Kinomescan method relative to control
[14] = Drug concentration in Sprague Dawley rat at 2 mg/kg, iv measured after 24 hrs; type: ADME, organism-based; details: in vivo, read-out: Ct
[15] = Tmax in Sprague Dawley rat at 10 mg/kg, po measured after 24 hrs; type: ADME, organism-based; details: in vivo
[16] = molecular target: T1, MAP kinase-interacting serine/threonine-protein kinase 1; assay: Inhibition of wild type human full length MKN1 (M1 to L424) expressed in mammalian expression system at 1 uM by Kinomescan method relative to control
Target sequence in this assay (Q9BUB5 whole entry, looked up): as the sequence (Q9BUB5 whole entry) above

[17] = tested on: MOLM-13; assay: Induction of apoptosis in human MOLM-13 cells assessed as live cells at 1 uM incubated for 12 hrs by annexin-V and propidium iodide staining based flow cytometry analysis (reference value: 91.49%); type: functional
[18] = Half life in Sprague Dawley rat at 2 mg/kg, iv measured after 24 hrs; type: ADME, organism-based; details: in vivo
[19] = AUC (0 to infinity) in Sprague Dawley rat at 10 mg/kg, ip measured after 24 hrs; type: ADME, organism-based; design: route intraperitoneal, dose 10 mg/kg, time 24 hrs; details: in vivo
[20] = molecular target: Epidermal growth factor receptor (Homo sapiens, UniProt P00533, T790M); assay: Inhibition of recombinant human EGFR T790M mutant (696 to end residues) using GGMEDIYFEFMGG as substrate after 40 mins in presence of [gamma-33ATP] by radiometric scintillation counting analysis
[21] = molecular target: T1, MAP kinase-interacting serine/threonine-protein kinase 1; assay: Inhibition of MKN1 (unknown origin) in presence of ATP by HTRF assay
Target sequence in this assay (Q9BUB5 whole entry): as above

[22] = Metabolic stability in human liver microsomes assessed as half life preincubated for 10 mins followed by NADPH addition and further incubated upto 60 mins by LC-MS/MS analysis; type: ADME, Microsome; details: time <=70 min
[23] = molecular target: Serine/threonine-protein kinase B-raf (Homo sapiens, UniProt P15056); assay: Inhibition of wild-type human partial length BRAF (S429 to E741 residues) expressed in mammalian expression system at 1 uM by Kinomescan method relative to control
[24] = tested on: K562; assay: Downregulation of c-myc levels in human K562 cells at 1 to 2 uM incubated for 24 hrs by western blot analysis; type: functional, cell-based; details: dose 1-2 µM
[25] = AUC (0 to t) in Sprague Dawley rat at 2 mg/kg, iv measured after 24 hrs; type: ADME, organism-based; design: route intravenous, time 24 hrs, dose 2 mg/kg; details: in vivo
[26] = Intrinsic clearance in human liver microsomes preincubated for 10 mins followed by NADPH addition and further incubated upto 60 mins by LC-MS/MS analysis; type: ADME, Microsome; details: time <=70 min, read-out: CLH
[27] = Toxicity in NOD/SCID mouse xenografted with human MOLM-13 cells assessed as abnormal changes in heart at 5 to 10 mg/kg, ip daily for 2 weeks by hematoxylin-eosin staining based histological analysis; type: organism-based; details: in vivo, 336 h, dose 5-10 mg/kg
[28] = molecular target: MAP kinase-interacting serine/threonine-protein kinase 2 (Homo sapiens, UniProt Q9HBH9); assay: Inhibition of MKN2 (unknown origin) in presence of ATP by HTRF assay
[29] = tested on: MOLM-13; assay: Antitumor activity against human MOLM-13 cells xenografted in NOD/SCID mouse assessed as tumor growth inhibition at 10 mg/kg, ip daily for 2 weeks; type: functional; details: MOLM-13, ip, 336 h, read-out: TGI
[30] = tested on: MOLM-13; assay: Induction of cell cycle arrest in human MOLM-13 cells assessed as G1 phase at 1 uM incubated for 12 hr by propidium iodide based flow cytometry analysis (Rvb= 51.29%); type: functional
[31] = tested on: MOLM-13; assay: Antitumor activity against human MOLM-13 cells xenografted in NOD/SCID mouse assessed as decrease in BAD phosphorylation at 10 mg/kg, ip daily for 2 weeks by western blot analysis; type: functional, organism-based
[32] = Metabolic stability in rat liver microsomes assessed as half life preincubated for 10 mins followed by NADPH addition and further incubated upto 60 mins by LC-MS/MS analysis; type: ADME, Microsome; details: time <=70 min
[33] = tested on: MOLM-13; assay: Induction of apoptosis in human MOLM-13 cells assessed as late apoptotic cells at 1 uM incubated for 12 hrs by annexin-V and propidium iodide staining based flow cytometry analysis (reference value: 3.03%); type: functional
[34] = tested on: MOLM-13; assay: Induction of apoptosis in human MOLM-13 cells assessed as early apoptotic cells at 2 uM incubated for 12 hrs by annexin-V and propidium iodide staining based flow cytometry analysis (reference value: 5.40%); type: functional
[35] = tested on: MOLM-13; assay: Induction of apoptosis in human MOLM-13 cells assessed as live cells at 2 uM incubated for 12 hrs by annexin-V and propidium iodide staining based flow cytometry analysis (reference value: 91.49%); type: functional
[36] = molecular target: Epidermal growth factor receptor (Homo sapiens, UniProt P00533); assay: Inhibition of recombinant human EGFR (696 to end residues) using poly(Glu, Tyr) 4:1 as substrate after 40 mins in presence of [gamma-33ATP] by radiometric scintillation counting analysis
[37] = Cmax in Sprague Dawley rat at 10 mg/kg, po measured after 24 hrs; type: ADME, organism-based; design: route oral, time 24 hrs, dose 10 mg/kg; details: in vivo

Sequence of Epidermal growth factor receptor (Homo sapiens, UniProt P00533) (P00533 whole entry): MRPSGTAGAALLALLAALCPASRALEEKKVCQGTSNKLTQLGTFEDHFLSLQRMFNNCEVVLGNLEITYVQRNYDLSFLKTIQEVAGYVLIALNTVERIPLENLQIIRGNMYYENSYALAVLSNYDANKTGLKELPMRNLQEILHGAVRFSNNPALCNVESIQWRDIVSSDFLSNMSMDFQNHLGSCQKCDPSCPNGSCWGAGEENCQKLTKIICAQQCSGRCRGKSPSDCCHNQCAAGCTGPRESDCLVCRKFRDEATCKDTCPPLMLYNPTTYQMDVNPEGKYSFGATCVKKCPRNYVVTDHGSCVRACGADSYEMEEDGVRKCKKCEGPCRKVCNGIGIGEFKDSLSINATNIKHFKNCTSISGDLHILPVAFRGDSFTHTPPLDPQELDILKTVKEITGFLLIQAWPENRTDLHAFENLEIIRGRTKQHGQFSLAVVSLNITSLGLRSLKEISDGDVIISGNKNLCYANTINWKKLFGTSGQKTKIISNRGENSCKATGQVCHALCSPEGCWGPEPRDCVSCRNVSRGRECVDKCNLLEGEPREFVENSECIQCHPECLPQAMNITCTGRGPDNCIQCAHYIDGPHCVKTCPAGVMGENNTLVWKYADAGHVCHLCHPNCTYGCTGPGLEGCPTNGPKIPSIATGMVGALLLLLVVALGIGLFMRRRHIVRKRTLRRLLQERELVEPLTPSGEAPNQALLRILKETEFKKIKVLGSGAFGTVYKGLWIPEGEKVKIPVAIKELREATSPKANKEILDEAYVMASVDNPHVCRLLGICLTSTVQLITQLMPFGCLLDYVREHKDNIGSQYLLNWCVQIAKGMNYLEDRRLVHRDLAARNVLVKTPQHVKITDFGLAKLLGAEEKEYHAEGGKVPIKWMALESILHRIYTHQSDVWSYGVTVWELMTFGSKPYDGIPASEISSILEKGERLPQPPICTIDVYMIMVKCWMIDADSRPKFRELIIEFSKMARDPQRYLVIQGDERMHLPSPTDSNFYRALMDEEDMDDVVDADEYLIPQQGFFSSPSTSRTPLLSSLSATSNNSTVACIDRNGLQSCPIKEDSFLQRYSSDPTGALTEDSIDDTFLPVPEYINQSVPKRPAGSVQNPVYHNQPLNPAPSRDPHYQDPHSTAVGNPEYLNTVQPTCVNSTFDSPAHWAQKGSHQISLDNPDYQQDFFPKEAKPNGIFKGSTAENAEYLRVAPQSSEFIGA
Sequence of MAP kinase-interacting serine/threonine-protein kinase 2 (Q9HBH9 whole entry): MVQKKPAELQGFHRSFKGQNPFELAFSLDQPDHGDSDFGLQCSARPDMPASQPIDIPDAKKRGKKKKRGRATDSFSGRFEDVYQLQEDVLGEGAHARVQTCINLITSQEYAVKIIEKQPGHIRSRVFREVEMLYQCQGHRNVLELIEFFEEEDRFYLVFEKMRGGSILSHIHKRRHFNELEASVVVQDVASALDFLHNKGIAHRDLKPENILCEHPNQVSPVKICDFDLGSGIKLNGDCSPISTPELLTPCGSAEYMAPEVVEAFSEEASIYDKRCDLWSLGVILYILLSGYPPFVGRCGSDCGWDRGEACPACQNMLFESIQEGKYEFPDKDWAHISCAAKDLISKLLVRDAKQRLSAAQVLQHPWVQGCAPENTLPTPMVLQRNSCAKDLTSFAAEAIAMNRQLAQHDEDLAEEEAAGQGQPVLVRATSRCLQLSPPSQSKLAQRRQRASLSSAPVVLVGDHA
Sequence of Epidermal growth factor receptor (Homo sapiens, UniProt P00533, T790M) (P00533 25-1210 T790M limits assumed): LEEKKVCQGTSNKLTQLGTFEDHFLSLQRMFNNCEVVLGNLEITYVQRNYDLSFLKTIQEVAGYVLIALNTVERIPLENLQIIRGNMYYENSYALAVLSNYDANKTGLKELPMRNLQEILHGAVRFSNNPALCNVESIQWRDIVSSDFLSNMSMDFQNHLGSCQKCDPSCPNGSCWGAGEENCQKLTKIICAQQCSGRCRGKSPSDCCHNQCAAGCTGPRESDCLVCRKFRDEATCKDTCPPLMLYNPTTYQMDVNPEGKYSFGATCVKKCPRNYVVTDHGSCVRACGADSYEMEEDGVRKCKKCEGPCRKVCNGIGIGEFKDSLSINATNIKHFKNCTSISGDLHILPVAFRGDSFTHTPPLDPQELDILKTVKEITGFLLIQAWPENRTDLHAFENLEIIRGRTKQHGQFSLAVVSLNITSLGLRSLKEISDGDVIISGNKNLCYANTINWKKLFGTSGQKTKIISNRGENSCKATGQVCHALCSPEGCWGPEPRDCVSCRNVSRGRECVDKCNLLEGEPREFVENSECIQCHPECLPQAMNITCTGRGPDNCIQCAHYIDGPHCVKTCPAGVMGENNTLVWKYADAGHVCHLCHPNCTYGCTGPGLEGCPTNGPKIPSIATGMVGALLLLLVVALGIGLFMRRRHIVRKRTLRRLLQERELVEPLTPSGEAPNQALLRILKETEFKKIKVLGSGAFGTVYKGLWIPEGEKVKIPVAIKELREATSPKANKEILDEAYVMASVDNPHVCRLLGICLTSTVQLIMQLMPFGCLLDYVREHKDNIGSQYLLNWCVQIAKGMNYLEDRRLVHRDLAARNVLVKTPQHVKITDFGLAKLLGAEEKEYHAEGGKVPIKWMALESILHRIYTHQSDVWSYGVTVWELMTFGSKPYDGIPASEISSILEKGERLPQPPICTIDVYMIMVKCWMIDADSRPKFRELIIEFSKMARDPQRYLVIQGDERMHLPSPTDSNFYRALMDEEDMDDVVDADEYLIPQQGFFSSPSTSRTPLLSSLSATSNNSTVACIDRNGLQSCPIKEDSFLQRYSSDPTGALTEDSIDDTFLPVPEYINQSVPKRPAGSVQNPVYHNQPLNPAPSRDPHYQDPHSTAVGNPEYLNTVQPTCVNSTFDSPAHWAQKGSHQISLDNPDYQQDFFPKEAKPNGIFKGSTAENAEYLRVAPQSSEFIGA
Sequence of Serine/threonine-protein kinase pim-2 (Q9P1W9 whole entry): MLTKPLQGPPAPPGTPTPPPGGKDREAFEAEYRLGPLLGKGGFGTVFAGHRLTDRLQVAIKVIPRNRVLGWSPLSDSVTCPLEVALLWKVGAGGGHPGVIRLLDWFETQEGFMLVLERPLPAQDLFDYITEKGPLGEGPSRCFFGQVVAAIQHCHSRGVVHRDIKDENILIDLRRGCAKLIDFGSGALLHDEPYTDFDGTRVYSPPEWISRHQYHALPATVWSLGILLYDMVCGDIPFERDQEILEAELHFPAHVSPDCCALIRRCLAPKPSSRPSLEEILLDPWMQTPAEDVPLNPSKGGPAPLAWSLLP
Sequence of Serine/threonine-protein kinase B-raf (P15056 whole entry, the tested form may be a part): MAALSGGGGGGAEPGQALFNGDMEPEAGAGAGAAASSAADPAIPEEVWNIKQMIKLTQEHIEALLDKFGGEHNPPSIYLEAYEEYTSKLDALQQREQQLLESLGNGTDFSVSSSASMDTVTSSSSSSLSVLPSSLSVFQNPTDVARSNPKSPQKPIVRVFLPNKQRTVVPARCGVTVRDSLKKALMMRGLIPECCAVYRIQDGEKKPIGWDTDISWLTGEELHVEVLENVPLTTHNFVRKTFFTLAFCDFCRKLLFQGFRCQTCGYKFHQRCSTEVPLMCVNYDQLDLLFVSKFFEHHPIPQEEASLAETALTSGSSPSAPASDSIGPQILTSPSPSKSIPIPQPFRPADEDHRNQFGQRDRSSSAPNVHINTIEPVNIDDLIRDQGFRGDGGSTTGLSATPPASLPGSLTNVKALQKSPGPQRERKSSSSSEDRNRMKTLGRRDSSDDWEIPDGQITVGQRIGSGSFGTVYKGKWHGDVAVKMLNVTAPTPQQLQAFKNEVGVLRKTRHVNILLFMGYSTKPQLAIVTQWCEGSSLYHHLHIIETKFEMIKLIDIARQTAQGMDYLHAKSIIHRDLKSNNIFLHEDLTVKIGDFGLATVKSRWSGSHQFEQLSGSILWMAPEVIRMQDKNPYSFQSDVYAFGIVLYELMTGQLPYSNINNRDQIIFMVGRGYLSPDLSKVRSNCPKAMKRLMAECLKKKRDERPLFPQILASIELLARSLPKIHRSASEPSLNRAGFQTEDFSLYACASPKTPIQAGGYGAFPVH

- Tmax [1]: 0.67 h
- IC50 [2]: 1 nM
- IC50 [5]: 232 nM
- Cmax [7]: 652 ng/mL
- bioavailability [8]: 20.6%
- GI50 [10]: 2190 nM
- inhibition [13]: 90%
- concentration at 24 h [14]: 765 ng/mL
- Tmax [15]: 8 h
- inhibition [16]: 100%
- half-life [18]: 6.71 h
- AUC(0-inf) [19]: 1680 ng·h/mL
- IC50 [20]: > 10000 nM
- IC50 [21]: 1 nM
- half-life [22]: 3.4 h
- inhibition [23]: 87%
- AUC(0-t) at 24 h [25]: 1610 ng·h/mL
- CLint scaled [26]: 8.53 mL/min/kg
- IC50 [28]: 7 nM
- half-life [32]: 0.602 h
- IC50 [36]: 1970 nM
- Cmax [37]: 224 ng/mL
SMILES: CC(C)Oc1cc(F)ccc1Nc1ncnc2ccc(-c3ccc(C(=O)N4CCNCC4)cc3)nc12
- Activity [3]: Non-Toxic
- Activity [4]: Active
- Activity [6]: 44.38%
- Activity [9]: Active
- Activity [11]: Active
- Activity [12]: 6.83%
- Activity [17]: 90.09%
- Activity [24]: Active
- Activity [27]: Non-Toxic
- inhibition in vivo at 10 mg/kg [29]: 57.6%
- Activity [30]: 61.13%
- Activity [31]: Active
- Activity [33]: 2.97%
- Activity [34]: 29.57%
- Activity [35]: 61.5%
